Literature values in paper PMC12181400, “Leveraging viral genome sequences and machine learning models for identification of potentially selective antiviral agents” (Communications Chemistry, 2025).
Structures can show the parent of a compound that is named as a salt. Where two headings read alike, the source gives them in different places.

Legend:
Conditions in all cases: cited from earlier work
[1] = test system: cell viability (tox21-ar-mda-kb2-luc-antagonist-p2)
[2] = test system: cell viability (tox21-ap1-agonist-p1)
[3] = test system: cell viability (tox21-car-antagonist-p1)
[4] = test system: cell viability (tox21-car-agonist-p1)
[5] = test system: cell viability (tox21-ar-mda-kb2-luc-agonist-p3)
[6] = test system: cell viability (tox21-are-bla-p1)
[7] = curve rank −9 to 9, 0 = inactive, ref NCATS Tox21 public data browser

Cc1cc(C)cc(OCC2CNC(=O)O2)c1 (stereo not drawn) [Metaxalone]
0: tox21-ar-mda-kb2-luc-antagonist-p2-viability (curve rank) [1] | tox21-ap1-agonist-p1-viability (curve rank) [2] | tox21-car-antagonist-p1-viability (curve rank) [3] | tox21-car-agonist-p1-viability (curve rank) [4] | tox21-ar-mda-kb2-luc-agonist-p3-viability (curve rank) [5] | tox21-are-bla-p1-viability (curve rank) [6]

COc1cc(C(=O)NCc2ccc(OCCN(C)C)cc2)cc(OC)c1OC [Trimethobenzamide hydrochloride]
0: tox21-ar-mda-kb2-luc-antagonist-p2-viability (curve rank) [1] | tox21-ap1-agonist-p1-viability (curve rank) [2] | tox21-car-antagonist-p1-viability (curve rank) [3] | tox21-car-agonist-p1-viability (curve rank) [4] | tox21-ar-mda-kb2-luc-agonist-p3-viability (curve rank) [5] | tox21-are-bla-p1-viability (curve rank) [6]

C/C(=C(\CCOP(=O)(O)O)SC(=O)c1ccccc1)N(C=O)Cc1cnc(C)nc1N [Benfotiamine]
0: tox21-ar-mda-kb2-luc-antagonist-p2-viability (curve rank) [1] | tox21-ap1-agonist-p1-viability (curve rank) [2] | tox21-car-antagonist-p1-viability (curve rank) [3] | tox21-car-agonist-p1-viability (curve rank) [4] | tox21-ar-mda-kb2-luc-agonist-p3-viability (curve rank) [5] | tox21-are-bla-p1-viability (curve rank) [6]

CCN(CC)CCOC(=O)C(c1ccccc1)c1ccccc1 [Adiphenine hydrochloride]
0: tox21-ar-mda-kb2-luc-antagonist-p2-viability (curve rank) [1] | tox21-ap1-agonist-p1-viability (curve rank) [2] | tox21-car-antagonist-p1-viability (curve rank) [3] | tox21-car-agonist-p1-viability (curve rank) [4] | tox21-ar-mda-kb2-luc-agonist-p3-viability (curve rank) [5] | tox21-are-bla-p1-viability (curve rank) [6]

COC(=O)[C@H](c1ccccc1Cl)N1CCc2sccc2C1 [Clopidogrel bisulfate]
0: tox21-ar-mda-kb2-luc-antagonist-p2-viability (curve rank) [1] | tox21-ap1-agonist-p1-viability (curve rank) [2] | tox21-car-antagonist-p1-viability (curve rank) [3] | tox21-car-agonist-p1-viability (curve rank) [4] | tox21-ar-mda-kb2-luc-agonist-p3-viability (curve rank) [5] | tox21-are-bla-p1-viability (curve rank) [6]

CC(C)NCC(O)COc1ccc(COCCOC(C)C)cc1 (stereo not drawn) [Bisoprolol fumarate]
0: tox21-ar-mda-kb2-luc-antagonist-p2-viability (curve rank) [1] | tox21-ap1-agonist-p1-viability (curve rank) [2] | tox21-car-antagonist-p1-viability (curve rank) [3] | tox21-car-agonist-p1-viability (curve rank) [4] | tox21-ar-mda-kb2-luc-agonist-p3-viability (curve rank) [5] | tox21-are-bla-p1-viability (curve rank) [6]

Cc1ncc([N+](=O)[O-])n1CC(O)CCl (stereo not drawn) [Ornidazole]
0: tox21-ar-mda-kb2-luc-antagonist-p2-viability (curve rank) [1] | tox21-ap1-agonist-p1-viability (curve rank) [2] | tox21-car-antagonist-p1-viability (curve rank) [3] | tox21-car-agonist-p1-viability (curve rank) [4] | tox21-ar-mda-kb2-luc-agonist-p3-viability (curve rank) [5] | tox21-are-bla-p1-viability (curve rank) [6]

CC(=O)Nc1ccccc1 [Acetanilide]
0: tox21-ar-mda-kb2-luc-antagonist-p2-viability (curve rank) [1] | tox21-ap1-agonist-p1-viability (curve rank) [2] | tox21-car-antagonist-p1-viability (curve rank) [3] | tox21-car-agonist-p1-viability (curve rank) [4] | tox21-ar-mda-kb2-luc-agonist-p3-viability (curve rank) [5] | tox21-are-bla-p1-viability (curve rank) [6]

Cc1ccccc1OCC(O)CO (stereo not drawn) [Mephenesin]
0: tox21-ar-mda-kb2-luc-antagonist-p2-viability (curve rank) [1] | tox21-ap1-agonist-p1-viability (curve rank) [2] | tox21-car-antagonist-p1-viability (curve rank) [3] | tox21-car-agonist-p1-viability (curve rank) [4] | tox21-ar-mda-kb2-luc-agonist-p3-viability (curve rank) [5] | tox21-are-bla-p1-viability (curve rank) [6]

CN1Cc2c(N)cccc2C(c2ccccc2)C1 (stereo not drawn) [Nomifensine maleate]
0: tox21-ar-mda-kb2-luc-antagonist-p2-viability (curve rank) [1] | tox21-ap1-agonist-p1-viability (curve rank) [2] | tox21-car-antagonist-p1-viability (curve rank) [3] | tox21-car-agonist-p1-viability (curve rank) [4] | tox21-ar-mda-kb2-luc-agonist-p3-viability (curve rank) [5] | tox21-are-bla-p1-viability (curve rank) [6]

NS(=O)(=O)c1cc2c(cc1Cl)N=C(CSCc1ccccc1)NS2(=O)=O [Benzthiazide]
0: tox21-ar-mda-kb2-luc-antagonist-p2-viability (curve rank) [1] | tox21-ap1-agonist-p1-viability (curve rank) [2] | tox21-car-antagonist-p1-viability (curve rank) [3] | tox21-car-agonist-p1-viability (curve rank) [4] | tox21-ar-mda-kb2-luc-agonist-p3-viability (curve rank) [5] | tox21-are-bla-p1-viability (curve rank) [6]

CCN(CC)CCNC(=O)c1cc(Br)c(N)cc1OC [Bromopride]
0: tox21-ar-mda-kb2-luc-antagonist-p2-viability (curve rank) [1] | tox21-ap1-agonist-p1-viability (curve rank) [2] | tox21-car-antagonist-p1-viability (curve rank) [3] | tox21-car-agonist-p1-viability (curve rank) [4] | tox21-ar-mda-kb2-luc-agonist-p3-viability (curve rank) [5] | tox21-are-bla-p1-viability (curve rank) [6]

[H]/N=C(/N)NS(=O)(=O)c1ccc(N)cc1 [Sulfaguanidine]
0: tox21-ar-mda-kb2-luc-antagonist-p2-viability (curve rank) [1] | tox21-ap1-agonist-p1-viability (curve rank) [2] | tox21-car-antagonist-p1-viability (curve rank) [3] | tox21-car-agonist-p1-viability (curve rank) [4] | tox21-ar-mda-kb2-luc-agonist-p3-viability (curve rank) [5] | tox21-are-bla-p1-viability (curve rank) [6]

CC(C)(C(=O)c1cccnc1)c1cccnc1 [Metyrapone]
0: tox21-ar-mda-kb2-luc-antagonist-p2-viability (curve rank) [1] | tox21-ap1-agonist-p1-viability (curve rank) [2] | tox21-car-antagonist-p1-viability (curve rank) [3] | tox21-car-agonist-p1-viability (curve rank) [4] | tox21-ar-mda-kb2-luc-agonist-p3-viability (curve rank) [5] | tox21-are-bla-p1-viability (curve rank) [6]

CCOc1ccc(NC(C)=O)cc1 [Phenacetin]
0: tox21-ar-mda-kb2-luc-antagonist-p2-viability (curve rank) [1] | tox21-ap1-agonist-p1-viability (curve rank) [2] | tox21-car-antagonist-p1-viability (curve rank) [3] | tox21-car-agonist-p1-viability (curve rank) [4] | tox21-ar-mda-kb2-luc-agonist-p3-viability (curve rank) [5] | tox21-are-bla-p1-viability (curve rank) [6]

CC(C(=O)O)c1ccc(C(=O)c2ccccc2)s1 (stereo not drawn) [Tiaprofenic acid]
0: tox21-ar-mda-kb2-luc-antagonist-p2-viability (curve rank) [1] | tox21-ap1-agonist-p1-viability (curve rank) [2] | tox21-car-antagonist-p1-viability (curve rank) [3] | tox21-car-agonist-p1-viability (curve rank) [4] | tox21-ar-mda-kb2-luc-agonist-p3-viability (curve rank) [5] | tox21-are-bla-p1-viability (curve rank) [6]

COc1cccc(C2(O)CCCCC2CN(C)C)c1.Cl (stereo not drawn) [Tramadol hydrochloride]
0: tox21-ar-mda-kb2-luc-antagonist-p2-viability (curve rank) [1, 7] | tox21-ap1-agonist-p1-viability (curve rank) [2, 7] | tox21-car-antagonist-p1-viability (curve rank) [3, 7] | tox21-car-agonist-p1-viability (curve rank) [4, 7] | tox21-ar-mda-kb2-luc-agonist-p3-viability (curve rank) [5, 7] | tox21-are-bla-p1-viability (curve rank) [6, 7]

NC(=O)N1c2ccccc2C=Cc2ccccc21 [Carbamazepine]
0: tox21-ar-mda-kb2-luc-antagonist-p2-viability (curve rank) [1] | tox21-ap1-agonist-p1-viability (curve rank) [2] | tox21-car-antagonist-p1-viability (curve rank) [3] | tox21-car-agonist-p1-viability (curve rank) [4] | tox21-ar-mda-kb2-luc-agonist-p3-viability (curve rank) [5] | tox21-are-bla-p1-viability (curve rank) [6]

NC(=O)C[S+]([O-])C(c1ccccc1)c1ccccc1 (stereo not drawn) [Modafinil]
0: tox21-ar-mda-kb2-luc-antagonist-p2-viability (curve rank) [1, 7] | tox21-ap1-agonist-p1-viability (curve rank) [2, 7] | tox21-car-antagonist-p1-viability (curve rank) [3, 7] | tox21-car-agonist-p1-viability (curve rank) [4, 7] | tox21-ar-mda-kb2-luc-agonist-p3-viability (curve rank) [5, 7] | tox21-are-bla-p1-viability (curve rank) [6, 7]

C[C@](N)(Cc1ccc(O)c(O)c1)C(=O)O [Methyldopa]
0: tox21-ar-mda-kb2-luc-antagonist-p2-viability (curve rank) [1] | tox21-ap1-agonist-p1-viability (curve rank) [2] | tox21-car-antagonist-p1-viability (curve rank) [3] | tox21-car-agonist-p1-viability (curve rank) [4] | tox21-ar-mda-kb2-luc-agonist-p3-viability (curve rank) [5] | tox21-are-bla-p1-viability (curve rank) [6]

Cc1cc(O)ccc1Cl [4-Chloro-3-methylphenol]
0: tox21-ar-mda-kb2-luc-antagonist-p2-viability (curve rank) [1, 7] | tox21-ap1-agonist-p1-viability (curve rank) [2, 7] | tox21-car-antagonist-p1-viability (curve rank) [3, 7] | tox21-car-agonist-p1-viability (curve rank) [4, 7] | tox21-ar-mda-kb2-luc-agonist-p3-viability (curve rank) [5, 7] | tox21-are-bla-p1-viability (curve rank) [6, 7]

CCOC(=O)c1cncn1[C@H](C)c1ccccc1 [Etomidate]
0: tox21-ar-mda-kb2-luc-antagonist-p2-viability (curve rank) [1, 7] | tox21-ap1-agonist-p1-viability (curve rank) [2, 7] | tox21-car-antagonist-p1-viability (curve rank) [3, 7] | tox21-car-agonist-p1-viability (curve rank) [4, 7] | tox21-ar-mda-kb2-luc-agonist-p3-viability (curve rank) [5, 7] | tox21-are-bla-p1-viability (curve rank) [6, 7]

c1ccc2c(CC3=NCCN3)cccc2c1 [Naphazoline hydrochloride]
0: tox21-ar-mda-kb2-luc-antagonist-p2-viability (curve rank) [1] | tox21-ap1-agonist-p1-viability (curve rank) [2] | tox21-car-antagonist-p1-viability (curve rank) [3] | tox21-car-agonist-p1-viability (curve rank) [4] | tox21-ar-mda-kb2-luc-agonist-p3-viability (curve rank) [5] | tox21-are-bla-p1-viability (curve rank) [6]

Cc1cc(CC(=O)[O-])n(C)c1C(=O)c1ccc(Cl)cc1.[Na+] [Sodium zomepirac]
0: tox21-ar-mda-kb2-luc-antagonist-p2-viability (curve rank) [1, 7] | tox21-ap1-agonist-p1-viability (curve rank) [2, 7] | tox21-car-antagonist-p1-viability (curve rank) [3, 7] | tox21-car-agonist-p1-viability (curve rank) [4, 7] | tox21-ar-mda-kb2-luc-agonist-p3-viability (curve rank) [5, 7] | tox21-are-bla-p1-viability (curve rank) [6, 7]

CN(C)CCn1nnnc1SCC1=C(C(=O)O)N2C(=O)[C@@H](NC(=O)Cc3csc(N)n3)[C@H]2SC1 [Cefotiam hydrochloride]
0: tox21-ar-mda-kb2-luc-antagonist-p2-viability (curve rank) [1] | tox21-ap1-agonist-p1-viability (curve rank) [2] | tox21-car-antagonist-p1-viability (curve rank) [3] | tox21-car-agonist-p1-viability (curve rank) [4] | tox21-ar-mda-kb2-luc-agonist-p3-viability (curve rank) [5] | tox21-are-bla-p1-viability (curve rank) [6]

CCN[C@H]1CN(CCCOC)S(=O)(=O)c2sc(S(N)(=O)=O)cc21 [Brinzolamide]
0: tox21-ar-mda-kb2-luc-antagonist-p2-viability (curve rank) [1] | tox21-ap1-agonist-p1-viability (curve rank) [2] | tox21-car-antagonist-p1-viability (curve rank) [3] | tox21-car-agonist-p1-viability (curve rank) [4] | tox21-ar-mda-kb2-luc-agonist-p3-viability (curve rank) [5] | tox21-are-bla-p1-viability (curve rank) [6]

O=C1C(CC[S+]([O-])c2ccccc2)C(=O)N(c2ccccc2)N1c1ccccc1 (stereo not drawn) [Sulfinpyrazone]
0: tox21-ar-mda-kb2-luc-antagonist-p2-viability (curve rank) [1] | tox21-ap1-agonist-p1-viability (curve rank) [2] | tox21-car-antagonist-p1-viability (curve rank) [3] | tox21-car-agonist-p1-viability (curve rank) [4] | tox21-ar-mda-kb2-luc-agonist-p3-viability (curve rank) [5] | tox21-are-bla-p1-viability (curve rank) [6]

C[C@]12CCC(=O)C=C1CC[C@@H]1[C@@H]2[C@@H](O)C[C@@]2(C)[C@H]1CC[C@]2(O)C(=O)CO [Hydrocortisone]
0: tox21-ar-mda-kb2-luc-antagonist-p2-viability (curve rank) [1] | tox21-ap1-agonist-p1-viability (curve rank) [2] | tox21-car-antagonist-p1-viability (curve rank) [3] | tox21-car-agonist-p1-viability (curve rank) [4] | tox21-ar-mda-kb2-luc-agonist-p3-viability (curve rank) [5] | tox21-are-bla-p1-viability (curve rank) [6]
